Data set [1] is described as follows: in-vitro test of oral rinses' ability to destroy or reduce microbial VSC toxins. As to conditions: 30 second exposure. The source says: FIG. 7 is an exemplary table of comparative laboratory text results, and a corresponding graphical representation of the average reduction in […] of each compound listed in the table.
FIG. 7 is an exemplary table of comparative laboratory text results, and a corresponding graphical representation of the average reduction in Volatile Sulfur Compounds of each compound listed in the table. More specifically, the table data and corresponding chart presents the results of controlled laboratory tests conducted on Aug. 11, 2012. The in-vitro tests simulated actual patient-use conditions anticipated in root canal and periodontal procedures. The measurements compare oral rinses based on their ability to destroy or reduce microbial VSC toxins after a 30 second exposure. The tests were completed for a variety of toxins including those produced by Porphyromonas gingivalis, Prevotella intermedia, Tannerella forsythia, Treponema socranskii, and Streptococcus mitis, all of which are routinely present in the oral cavity during periodontal and endodontic procedures.

For data set [2] the following is noted: in humans, including rare cases of anaphylactic shock; cited from earlier work.
For data set [3], the system named is Aggregatibacter actinomycetemcomitans. The data set is described as follows: standard Minimum Inhibitory Concentration test. Format: cell-based. Particulars: 18 to 24 hour test; CD at 37 parts per million, active for only three minutes. On the procedure:
(§1) FIG. 8 is an exemplary table of comparative laboratory test results illustrating Minimum Inhibitor Concentration of CD at a concentration of 37 parts per million versus Chlorhexidine (CHX) in effectiveness to destroy bacteria and yeast.
(§2) FIG. 8 is an exemplary table listing the comparative results of an 18 to 24 hour standard Minimum Inhibitory Concentration test of a chlorhexidine oral rinse solutions' effectiveness in inhibiting growth of bacteria typically found in the oral cavity, and during dental procedures. More specifically, under controlled test conditions of the University of Iowa College of Dentistry, May 15, 2012, a CD rinse solution was tested against and compared to the chlorhexidine (CHX) as shown.
(§3) It should be noted that even when CHX outperformed CD, or performed as well as CD but at lower concentrations, it did so after continuously acting upon the bacteria for a continuous period of 18 to 24 hours; CD on the other hand while the CD tested had been active for only three minutes, yet remarkably continued to inhibit growth for the subsequent testing time period.

The test system of data set [4] is Listeria, E. Coli, Pseudomonas, Salmonella, Staphylococcus, Streptococcus and others. As to conditions: within 30-60 seconds; cited from earlier work.
Data set [5] has as its system bacteria typically found in the oral cavity. Put plainly: standard Minimum Inhibitory Concentration test, other listed bacteria. It is filed as cell-based. Particulars: 18 to 24 hour MIC test. On the procedure:
as §1, §2, §3

The values that follow come from patent US20140242551A1, “Oral Care System and Method” (priority 2013, published 2014).

`[H]/N=C(\N/C(=N/[H])NCCCCCCNC(=N)NC(=N)Nc1ccc(Cl)cc1)Nc1ccc(Cl)cc1` [Chlorhexidine, reference compound]: the “toxin reduction (result in words)” value in data set [1] is “statistically nonsignificant drops”. Moreover, the “incidence of hypersensitivity reactions” value in data set [2] is given as 2%. The “Minimum Inhibitory Concentration, as dilution of rinse inhibiting growth” value in data set [3] is recorded as “⅛”.

In the case of `[O][Cl+][O-]` [CD, chlorine dioxide], the “microbial toxins destroyed (reduction in Volatile Sulfur Compounds)” value in data set [1] is given as 100%. In data set [4], the log reduction was 5 log and the reduction was 99.999%. Further, the “Minimum Inhibitory Concentration, as dilution of rinse inhibiting growth” value in data set [3] is on record as 1/32. Besides, in data set [5], the “growth inhibition compared with CHX (result in words)” value is reported as “equally well or slightly less well than CHX”.
